According to US8772494B2, “N-aryl piperidine substituted biphenylcarboxamides as inhibitors of apolipoprotein b” (Janssen Pharmaceutica N.V., priority 2003, dated 2014):

Assays:
MTP = MTP (Homo sapiens, UniProt P55157); experiment: MTP assay (triglyceride transfer from donor to acceptor vesicles); type: biochemical; settings: MTP activity, percent triglyceride transfer, 37° C.; read-out: pIC50 values (= −log IC50 value) (converted)
Procedure: MTP activity was measured using an assay similar to one described by J. R. Wetterau and D. B. Zilversmit in Chemistry and Physics of Lipids, 38, 205-222 (1985). To prepare the donor and acceptor vesicles, the appropriate lipids in chloroform were put into a glass test tube and dried under a stream of N2. A buffer containing 15 mM Tris-HCl pH 7.5, 1 mM EDTA, 40 mM NaCl, 0.02% NaN3 (assay buffer) was added to the dried lipid. The mixture was vortexed briefly and the lipids were then allowed to hydrate for 20 min on ice. Vesicles were then prepared by bath sonication (Branson 2200) at room temperature for maximum 15 min. Butylated hydroxytoluene was included in all vesicle preparations at a concentration of 0.1%. The lipid transfer assay mixture contained donor vesicles (40 nmol phosphatidylcholine, 7.5 mol % of cardiolipin and 0.25 mol % glycerol tri [1-^14C]-oleate), acceptor vesicles (240 nmol phosphatidylcholine) and 5 mg BSA in a total volume of 675 μl in a 1.5 ml microcentrifuge tube. Test compounds were added dissolved in DMSO (0.13% final concentration). After 5 minutes of pre-incubation at 37° C., the reaction was started by the addition of MTP in 100 μl dialysis buffer. The reaction was stopped by the addition of 400 μl DEAE-52 cellulose pre-equilibrated in 15 mM Tris-HCl pH 7.5, 1 mM EDTA, 0.02% NaN3 (1:1, vol/vol). The mixture was agitated for 4 min and centrifuged for 2 min at maximum speed in an Eppendorf centrifuge (4° C.) to pellet the DEAE-52-bound donor vesicles. An aliquot of the supernatant containing the acceptor liposomes was counted and the [^14C]-counts were used to calculate the percent triglyceride transfer from donor to acceptor vesicles.
Resulting IC50 values are enumerated in Table C.2. When the calculated IC50 was below 7, not enough data points were available at the tested concentrations to calculate an IC50 value.

[1] = system: ApoB secretion, HepG2 cells; experiment: Quantification of the secretion of ApoB; type: cell-based; settings: Homo sapiens, 24 hours of incubation, secreted apoB immunoprecipitated, read-out: pIC50 values (= −log IC50 value) (converted)
Procedure: HepG2 cells were cultured in 24-well plates in MEM Rega 3 containing 10% fetal calf serum. At 70% confluency, the medium was changed and the test compound or carrier (DMSO, 0.4% final concentration) was added. After 24 hours of incubation, the medium was transferred to Eppendorf tubes and cleared by centrifugation. A sheep antibody directed against either apoB was added to the supernatant and the mixture was kept at 8° C. for 24 hours. Then, rabbit anti-sheep antibody was added and the immune complex was allowed to precipitate for 24 hours at 8° C. The immunoprecipitate was pelleted by centrifugation for 25 minutes at 1320 g and washed twice with a buffer containing 40 mM Mops, 40 mM NaH2PO4, 100 mM NaF, 0.2 mM DTT, 5 mM EDTA, 5 mM EGTA, 1% Triton-X-100, 0.5% sodium deoxycholate (DOC), 0.1% SDS, 0.2 μM leupeptin and 0.2 μM PMSF. Radioactivity in the pellet was quantified by liquid scintillation counting.
Resulting IC50 values are enumerated in Table C.1. When the calculated IC50 was below 6, not enough data points were available at the tested concentrations to calculate an IC50 value.

Sequence of MTP (P55157 19-894, species assumed): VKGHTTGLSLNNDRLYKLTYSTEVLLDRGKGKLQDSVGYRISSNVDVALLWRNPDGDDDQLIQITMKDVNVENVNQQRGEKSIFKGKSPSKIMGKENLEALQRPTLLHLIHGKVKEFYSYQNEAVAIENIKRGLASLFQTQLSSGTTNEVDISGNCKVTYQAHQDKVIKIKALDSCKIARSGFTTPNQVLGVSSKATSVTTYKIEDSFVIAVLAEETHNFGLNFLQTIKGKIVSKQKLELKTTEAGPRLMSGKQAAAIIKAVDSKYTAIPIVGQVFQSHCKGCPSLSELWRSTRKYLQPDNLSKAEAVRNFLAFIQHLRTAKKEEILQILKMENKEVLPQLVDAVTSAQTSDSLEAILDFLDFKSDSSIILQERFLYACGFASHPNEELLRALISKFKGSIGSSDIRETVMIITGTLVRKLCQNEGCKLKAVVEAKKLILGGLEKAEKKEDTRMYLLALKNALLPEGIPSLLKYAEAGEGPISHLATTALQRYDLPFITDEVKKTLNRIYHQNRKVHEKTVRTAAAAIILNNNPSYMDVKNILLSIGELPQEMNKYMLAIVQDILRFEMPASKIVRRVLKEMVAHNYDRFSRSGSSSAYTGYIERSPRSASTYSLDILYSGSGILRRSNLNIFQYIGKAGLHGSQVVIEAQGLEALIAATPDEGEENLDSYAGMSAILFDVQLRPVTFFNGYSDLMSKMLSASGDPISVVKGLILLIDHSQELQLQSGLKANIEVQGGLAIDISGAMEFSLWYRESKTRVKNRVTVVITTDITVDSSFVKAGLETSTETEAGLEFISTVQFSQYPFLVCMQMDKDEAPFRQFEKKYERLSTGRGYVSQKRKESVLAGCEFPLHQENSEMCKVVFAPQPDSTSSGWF
Sequence of MTP (P07237 18-508 partner, species assumed): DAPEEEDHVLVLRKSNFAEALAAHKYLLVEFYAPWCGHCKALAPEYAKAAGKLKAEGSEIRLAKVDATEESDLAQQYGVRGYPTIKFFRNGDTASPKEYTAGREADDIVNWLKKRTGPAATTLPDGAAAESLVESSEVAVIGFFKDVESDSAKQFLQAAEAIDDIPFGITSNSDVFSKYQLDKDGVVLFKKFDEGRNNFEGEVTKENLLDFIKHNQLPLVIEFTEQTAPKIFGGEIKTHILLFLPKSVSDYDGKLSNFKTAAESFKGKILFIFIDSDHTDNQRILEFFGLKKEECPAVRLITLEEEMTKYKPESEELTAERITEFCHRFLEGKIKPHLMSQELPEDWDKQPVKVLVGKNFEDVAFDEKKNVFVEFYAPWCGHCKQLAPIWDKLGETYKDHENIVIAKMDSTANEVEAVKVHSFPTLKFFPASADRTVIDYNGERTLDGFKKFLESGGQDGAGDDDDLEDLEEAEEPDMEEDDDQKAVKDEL

## CCOC(=O)[C@H](NC(=O)CC1CCN(c2ccc(NC(=O)c3ccccc3-c3ccc(C(F)(F)F)cc3)cc2)CC1)c1ccccc1 [Compound 21]
MTP
  IC50: 3.37 nM
[1]
  IC50: 121 nM

## CCOC(=O)CN(C)C(=O)CC1CCN(c2ccc(NC(=O)c3ccccc3-c3ccc(C(F)(F)F)cc3)cc2)CC1 [Compound 33]
MTP
  IC50: 69.5 nM
[1]
  IC50: > 1000 nM

## CCOC(=O)[C@H](C)NC(=O)CC1CCN(c2ccc(NC(=O)c3ccccc3-c3ccc(C(F)(F)F)cc3)cc2)CC1 [Compound 17]
MTP
  IC50: 5.6 nM
[1]
  IC50: > 1000 nM

## CCOC(=O)CC[C@H](NC(=O)CC1CCN(c2ccc(NC(=O)c3ccccc3-c3ccc(C(F)(F)F)cc3)cc2)CC1)C(=O)OCC [Compound 34]
MTP
  IC50: 12.1 nM
[1]
  IC50: > 1000 nM

## COC(=O)[C@H](Cc1c[nH]c2ccccc12)NC(=O)CC1CCN(c2ccc(NC(=O)c3cccc(C)c3-c3ccc(C(F)(F)F)cc3)cc2)CC1 [Compound 53]
MTP
  IC50: 15.7 nM
[1]
  IC50: 126 nM

## CCOC(=O)C(Cc1c[nH]c2ccccc12)NC(=O)CC1CCN(c2ccc(NC(=O)c3ccccc3-c3ccc(C(F)(F)F)cc3)cc2)CC1 (centres unmarked) [Compound 6]
MTP
  IC50: 9.31 nM
[1]
  IC50: < 30 nM

## CCOC(=O)C1CCCCN1C(=O)CC1CCN(c2ccc(NC(=O)c3ccccc3-c3ccc(C(F)(F)F)cc3)cc2)CC1 (centres unmarked) [Compound 1]
MTP
  IC50: > 100 nM
[1]
  IC50: > 1000 nM

## COC(=O)CCC(NC(=O)CC1CCN(c2ccc(NC(=O)c3cccc(C)c3-c3ccc(C(F)(F)F)cc3)cc2)CC1)C(=O)OC (centres unmarked) [Compound 54]
MTP
  IC50: 3.11 nM
[1]
  IC50: 488 nM

## CCOC(=O)[C@@H]1C[C@@H](O)CN1C(=O)CC1CCN(c2ccc(NC(=O)c3ccccc3-c3ccc(C(F)(F)F)cc3)cc2)CC1 [Compound 14]
MTP
  IC50: > 100 nM
[1]
  IC50: > 1000 nM

## COC(=O)[C@H]1CCCCN1C(=O)CC1CCN(c2ccc(NC(=O)c3ccccc3-c3ccc(C(F)(F)F)cc3)cc2)CC1 [Compound 9]
MTP
  IC50: > 100 nM
[1]
  IC50: > 1000 nM
